Measured values taken from US5633016A, “Combination chemotherapy” (SmithKline Beecham Corporation, priority 1995, dated 1997).
Read-outs that look alike come from different tables or passages of the source.

Experiments:
[1] = tested on: non-small cell lung carcinoma; conditions: humans, sole chemotherapeutic agent; cited from earlier work
[2] = in words; cited from earlier work
DNA topoisomerase I = conditions: background statement; cited from earlier work
esophageal cancer = conditions: humans, sole chemotherapeutic agent; cited from earlier work
[3] = type: physicochemical; conditions: hang-bag, 24 hours
Protocol: Topotecan diluted in saline (10 ug/ml or 500 ug/ml) or dextrose (6.7 ug/ml or 330 ug/ml) is stable in a hang-bag for 24 hours with at least 95% recovery.

ovarian cancer = conditions: humans, sole chemotherapeutic agent; cited from earlier work
[4] = type: physicochemical; conditions: plastic bags, room temperature
Protocol: Stability - Shelf life surveillance of the intact vials is ongoing. Because the single-use lyophilized dosage form contains no antibacterial preservatives, it is advised that the reconstituted solution be discarded eight hours after initial entry into the vial. Further dilutions of the reconstituted solution to concentrations of 0.02 mg/ml and 0.1 mg. ml in 5% Dextrose Injection, USP, ("D5W") or 0.9% Sodium Chloride Injection, USP, ("NS") in plastic bags stored at room temperature yielded the following stability results:
Percentage of Initial Topotecan Remaining in Solution

CC[C@@]1(O)C(=O)OCc2c1cc1n(c2=O)Cc2cc3c(CN(C)C)c(O)ccc3nc2-1 [Topotecan, (S)-10[(dimethylamino)methyl]-4-ethyl-4,9-dihydroxy-IH-pyrano[3',4':6,7]indolizino[1,2-b]quinolone-3,14(4H,12H)-dione]
clinical efficacy [1]: shown clinical efficacy | water solubility [2]: water-soluble | inhibition of DNA topoisomerase I (DNA topoisomerase I): specific inhibitor of DNA topoisomerase I | clinical efficacy (esophageal cancer): shown clinical efficacy | recovery ([3]; dextrose (6.7 ug/ml or 330 ug/ml)): at least 95% | recovery ([3]; saline (10 ug/ml or 500 ug/ml)): at least 95% | clinical efficacy (ovarian cancer): shown clinical efficacy | Percentage of Initial Topotecan Remaining in Solution ([4]; D5W (5% Dextrose Injection, USP), 0.02 mg/ml, 0 hrs): 100.00 Percentage | Percentage of Initial Topotecan Remaining in Solution ([4]; D5W (5% Dextrose Injection, USP), 0.1 mg/ml, 0 hrs): 100.00 Percentage | Percentage of Initial Topotecan Remaining in Solution ([4]; NS (0.9% Sodium Chloride Injection, USP), 0.02 mg/ml, 0 hrs): 100.00 Percentage | Percentage of Initial Topotecan Remaining in Solution ([4]; NS (0.9% Sodium Chloride Injection, USP), 0.1 mg/ml, 0 hrs): 100.00 Percentage | Percentage of Initial Topotecan Remaining in Solution ([4]; NS (0.9% Sodium Chloride Injection, USP), 0.1 mg/ml, 6 hrs): 97.71 Percentage | Percentage of Initial Topotecan Remaining in Solution ([4]; NS (0.9% Sodium Chloride Injection, USP), 0.1 mg/ml, 24 hrs): 98.30 Percentage | Percentage of Initial Topotecan Remaining in Solution ([4]; NS (0.9% Sodium Chloride Injection, USP), 0.1 mg/ml, 48 hrs): 98.35 Percentage
